{
  "source": "paper PMC9268515",
  "about": "“UGT1A1 and UGT1A9 Are Responsible for Phase II Metabolism of Tectorigenin and Irigenin In Vitro” (Molecules, 2022)",
  "assay_type_in_all_cases": "in vitro ADME",
  "key": {"UGT2B15": {"target": "T1, UGT2B15 (Homo sapiens, UniProt P54855)", "T1 construct": "purchased BD Biosciences (Woburn, MA, USA)", "T1 sequence (P54855 24-530)": "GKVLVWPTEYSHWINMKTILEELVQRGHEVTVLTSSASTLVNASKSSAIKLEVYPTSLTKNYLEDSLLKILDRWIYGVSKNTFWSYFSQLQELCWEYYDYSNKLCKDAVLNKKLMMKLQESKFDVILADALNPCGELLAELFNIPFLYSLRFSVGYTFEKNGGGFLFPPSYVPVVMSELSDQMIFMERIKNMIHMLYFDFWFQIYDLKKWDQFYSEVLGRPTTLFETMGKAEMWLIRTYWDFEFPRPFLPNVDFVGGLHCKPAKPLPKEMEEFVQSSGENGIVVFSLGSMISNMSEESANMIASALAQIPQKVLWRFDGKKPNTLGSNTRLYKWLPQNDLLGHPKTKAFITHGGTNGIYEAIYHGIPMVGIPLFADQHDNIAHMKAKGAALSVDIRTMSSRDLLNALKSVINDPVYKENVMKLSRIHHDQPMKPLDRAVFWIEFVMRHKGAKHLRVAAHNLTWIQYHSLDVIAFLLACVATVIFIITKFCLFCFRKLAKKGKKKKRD", "assay": "Recombinant UGT reaction screening, UGT2B15", "procedure": "(§1) UGT reaction screening of tectorigenin and irigenin was conducted using nine commercially available human UGTs (UGT1A1/1A3/1A4/1A6/1A9/2B4/2B7/2B15/2B17). Furthermore, we studied the enzymatic kinetic characteristics of tectorigenin and irigenin using UGT1A1 and UGT1A9. Six concentrations of tectorigenin and irigenin (1, 3, 10, 30, 100, and 300 μM) were incubated in triplicate in order to obtain the enzyme kinetic characteristics of tectorigenin and irigenin glucuronide."}, "UGT1A9": {"target": "T2, UGT1A9 (Homo sapiens, UniProt O60656)", "T2 construct": "purchased BD Biosciences (Woburn, MA, USA)", "T2 sequence (O60656 26-530)": "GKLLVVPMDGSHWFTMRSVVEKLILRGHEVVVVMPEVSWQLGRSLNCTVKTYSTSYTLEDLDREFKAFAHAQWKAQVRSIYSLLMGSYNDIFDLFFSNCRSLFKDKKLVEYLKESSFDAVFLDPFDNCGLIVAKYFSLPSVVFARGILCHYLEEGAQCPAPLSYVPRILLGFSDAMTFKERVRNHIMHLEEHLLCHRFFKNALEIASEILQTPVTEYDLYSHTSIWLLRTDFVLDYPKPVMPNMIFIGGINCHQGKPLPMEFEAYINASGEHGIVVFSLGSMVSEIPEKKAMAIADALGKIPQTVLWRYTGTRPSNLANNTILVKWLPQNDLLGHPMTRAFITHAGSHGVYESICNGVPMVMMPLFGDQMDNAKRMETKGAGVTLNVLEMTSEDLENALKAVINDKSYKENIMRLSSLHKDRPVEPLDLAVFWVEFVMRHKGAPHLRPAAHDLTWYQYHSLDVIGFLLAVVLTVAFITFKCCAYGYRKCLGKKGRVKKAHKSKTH", "assay": "Recombinant UGT reaction screening and enzyme kinetics, UGT1A9", "conditions": "recombinant UGT1A9 screening", "procedure": "as §1\nFor both HLMs and UGTs, metabolic kinetic analysis was performed by fitting the data to the Michaelis-Menten model. The Km and Vmax of enzymes were calculated as follows:(3) V=Vmax×[S]/Km+[S], where [S] is the substrate concentration. All results were shown as the mean ± standard error (SE). Differences among different groups were compared using one-way analysis of variance. A p-value < 0.05 was considered statistically significant."}, "UGT1A6": {"target": "T3, UGT1A6 (Homo sapiens, UniProt P19224)", "T3 construct": "purchased BD Biosciences (Woburn, MA, USA)", "T3 sequence (P19224 27-532)": "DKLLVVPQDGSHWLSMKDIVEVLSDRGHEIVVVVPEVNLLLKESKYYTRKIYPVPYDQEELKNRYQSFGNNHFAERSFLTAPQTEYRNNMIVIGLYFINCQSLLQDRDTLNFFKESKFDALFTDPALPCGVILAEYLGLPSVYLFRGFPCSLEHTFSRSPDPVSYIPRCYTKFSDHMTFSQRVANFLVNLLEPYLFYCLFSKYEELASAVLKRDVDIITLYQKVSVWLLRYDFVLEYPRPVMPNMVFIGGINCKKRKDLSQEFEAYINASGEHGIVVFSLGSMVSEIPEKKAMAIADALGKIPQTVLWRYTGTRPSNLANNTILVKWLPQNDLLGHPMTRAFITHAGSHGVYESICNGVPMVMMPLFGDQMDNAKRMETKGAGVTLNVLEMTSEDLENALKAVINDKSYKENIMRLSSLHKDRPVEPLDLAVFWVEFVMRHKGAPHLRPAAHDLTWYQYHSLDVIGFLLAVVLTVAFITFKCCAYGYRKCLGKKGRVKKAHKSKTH", "assay": "Recombinant UGT reaction screening, UGT1A6", "procedure": "as §1"}, "UGT1A4": {"target": "T4, UGT1A4 (Homo sapiens, UniProt P22310)", "T4 construct": "purchased BD Biosciences (Woburn, MA, USA)", "T4 sequence (P22310 29-534)": "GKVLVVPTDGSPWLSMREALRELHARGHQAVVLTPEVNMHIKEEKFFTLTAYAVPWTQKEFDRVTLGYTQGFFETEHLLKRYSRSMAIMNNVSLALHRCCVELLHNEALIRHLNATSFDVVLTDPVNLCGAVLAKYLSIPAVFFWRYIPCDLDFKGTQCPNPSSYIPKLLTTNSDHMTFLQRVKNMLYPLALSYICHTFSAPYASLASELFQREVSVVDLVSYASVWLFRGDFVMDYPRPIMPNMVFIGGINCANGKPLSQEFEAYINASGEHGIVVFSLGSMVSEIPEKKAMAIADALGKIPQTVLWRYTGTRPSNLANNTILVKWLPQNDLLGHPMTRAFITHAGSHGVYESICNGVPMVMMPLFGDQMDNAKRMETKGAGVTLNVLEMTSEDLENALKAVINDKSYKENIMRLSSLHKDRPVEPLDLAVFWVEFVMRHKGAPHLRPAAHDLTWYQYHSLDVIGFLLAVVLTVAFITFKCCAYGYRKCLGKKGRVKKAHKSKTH", "assay": "Recombinant UGT reaction screening, UGT1A4", "procedure": "as §1"}, "UGT1A3": {"target": "T5, UGT1A3 (Homo sapiens, UniProt P35503)", "T5 construct": "purchased BD Biosciences (Woburn, MA, USA)", "T5 sequence (P35503 29-534)": "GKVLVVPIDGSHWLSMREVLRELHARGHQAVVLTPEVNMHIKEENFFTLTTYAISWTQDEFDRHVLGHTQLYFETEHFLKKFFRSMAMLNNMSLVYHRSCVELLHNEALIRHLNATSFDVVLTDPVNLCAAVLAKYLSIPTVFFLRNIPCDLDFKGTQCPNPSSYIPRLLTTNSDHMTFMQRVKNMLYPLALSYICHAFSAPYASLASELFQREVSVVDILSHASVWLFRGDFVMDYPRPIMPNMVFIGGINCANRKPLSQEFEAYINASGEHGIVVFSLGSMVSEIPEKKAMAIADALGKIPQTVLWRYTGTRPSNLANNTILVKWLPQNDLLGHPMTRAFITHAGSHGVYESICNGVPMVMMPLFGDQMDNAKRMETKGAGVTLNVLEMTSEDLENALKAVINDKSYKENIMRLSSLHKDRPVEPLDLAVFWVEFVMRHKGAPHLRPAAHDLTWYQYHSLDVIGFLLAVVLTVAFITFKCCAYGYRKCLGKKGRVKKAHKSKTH", "assay": "Recombinant UGT reaction screening, UGT1A3", "procedure": "as §1"}},
  "data": [
    {"compound": "COc1c(O)cc2occ(-c3ccc(O)cc3)c(=O)c2c1O", "note": "[Tectorigenin, 5,7,4′-trihydroxyl-6-methoxyl isoflavone]", "values": [
      {"measurement": "Activity in glucuronidation of tectorigenin", "setting": "UGT2B15", "result": "none"},
      {"measurement": "Activity in glucuronidation of tectorigenin", "setting": "UGT1A9", "result": "highest activity"},
      {"measurement": "Activity in glucuronidation of tectorigenin", "setting": "UGT1A6", "result": "some activity"},
      {"measurement": "Activity in glucuronidation of tectorigenin", "setting": "UGT1A4", "result": "some activity"},
      {"measurement": "Activity in glucuronidation of tectorigenin", "setting": "UGT1A3", "result": "some activity"}
    ]}
  ]
}
